From patent publication US20010014699A1, “Benflumetol derivatives, intermediates thereof and their use against parasitical protozoa and trematodes” (priority 1998, published 2001)
Like-named read-outs stand apart in the source and are kept apart here.

Legend:
[1] = test system: Plasmodium falciparum isolates; test: WHO Standard Microtest, inhibition of schizont maturation in vitro; assay type: cell-based; conditions: for power ratio (PR) between benflumetol and the compound: Litchfield & Wilcoxon comparison; for efficacy compared with benflumetol (in words): Plasmodium falciparum in vitro; for inhibition at 0.003 µM: 3.0 nmol/l; for inhibition at 0.01 µM: 10.0 nmol/l; for inhibition at 0.03 µM: 30.0 nmol/l; for inhibition at 0.1 µM: 100.0 nmol/l; for inhibition at 0.3 µM: 300.0 nmol/l; for inhibition at 1 µM: 1000.0 nmol/l; for inhibition at 3 µM: 3000.0 nmol/l; for EC50: probit analysis, 95% confidence limits
Experimental: The study is carried out in Mae Sot, a province in north-west Thailand close to Myanmar. […] The test for efficacy is carried out with blood samples obtained by finger pricks (in accordance with the WHO Standard Microtest Method for studying the inhibition of schizont maturation, see Wemsdorfer, W. H., and Payne, D. (1988), Drug Sensitivity Tests. In: Wemsdorfer, W. H., and McGregor, I. A. (Editors), Malaria: Principles and practice of malariology; Churchill Livingstone, Edinburgh). The tests are carried out in parallel with benflumetol and the 2-alkylamino-1-[2,7-dichloro-9-(4-chlorobenzylidene]-9H-fluoren-4-yl)ethanols in concentrations between 3 and 3000 nmol/l in blood medium mixture (BMM) using materials from the WHO Standard Test Kit supplied by the WHO Regional Office for the Western Pacific, Manila, except for the predosed microtitre plates, which are prepared in the laboratory of the institute of Specific Prophylaxis and Tropical Medicine, University of Vienna, Austria.
The procedure for determining parasitaemia before incubation follows the WHO Standard Method (WHO (1991), Basic malaria microscopy. Part I; WHO, Geneva). The schizont titres are determined as described in Wemsdorfer and Payne (1988) (see above).
The statistical analysis of the data was carried out according to log-concentration/response probit analysis (Litchfield & Wilcoxon (1949), J. Exp. Pharmacol. 89, 99-113). This method is based on the least-squares procedure and is the most widely accepted method for the analysis of dose-response studies. A computer adaptation of the method (Wernsdorfer & Wernsdorfer, Mitteilungen der Österreichischen Gesellschaft für Tropenmedizin und Parasitologie 17, 221-228) is used for data processing.

[2] = cited from earlier work
[3] = cited from earlier work; remark: listed apart in the source
[4] = taken with foods having a high fat content; cited from earlier work
[5] = Plasmodium falciparum, 34-isolate test series (Examples 6.2 and 6.3)
[6] = Plasmodium falciparum, 34-isolate test series (Examples 6.2 and 6.3), read-out: EC50: mean value
[7] = Plasmodium falciparum, 58 isolates (Example 6.1)

| Structure (SMILES) | EC50 [1, 6] [nM] | concentration at which none of the isolates shows schizont maturation ([1]; 34 isolates) | power ratio (PR) between benflumetol and the compound ([1]; 34 isolates) | efficacy compared with benflumetol (in words) [1] | inhibition at 0.003 µM [1, 5] [%] | inhibition at 0.01 µM [1, 5] [%] | inhibition at 0.03 µM [1, 5] [%] | inhibition at 0.1 µM [1, 5] [%] | inhibition at 0.3 µM [1, 5] [%] | inhibition at 1 µM [1, 5] [%] | inhibition at 3 µM [1, 5] [%] | isolates completely inhibited ([1]; at 100 nml/l, 34 isolates) [%] | further results |
| --- | --- | --- | --- | --- | --- | --- | --- | --- | --- | --- | --- | --- | --- |
| CCN(CC)CCCC(C)Nc1ccnc2cc(Cl)ccc12 (stereo not shown) [Chloroquine] | – | – | – | – | – | – | – | – | – | – | – | – | half-life (in words) ([2]; in vivo): very long half-life |
| CO[C@H]1O[C@@H]2O[C@@]3(C)CC[C@H]4[C@H](C)CC[C@@H]([C@H]1C)[C@@]24OO3 [artemether, [3R-(3α, 5αβ, 6β, 8αβ, 9α, 10α, 12β,-12aR)]-decahydro-10-methoxy-3,6,9-trimethyl-3,12-epoxy-12H-pyrano[4,3-j]-1,2-benzodioxepin] | – | – | – | – | – | – | – | – | – | – | – | – | half-life ([2]; in plasma): 2 h |
| CCCCN(CCCC)CC(O)c1cc(Cl)cc2c1-c1ccc(Cl)cc1C2=Cc1ccc(Cl)cc1 (stereo not shown) [benflumetol, 2-(di-n-butylamino)-1-[2,7-dichloro-9-(4-chlorobenzylidene)-9H-fluoren-4-yl]ethanol] | 28 | above 3000 nmol/l | – | – | 7.16 | 18.4 | 42.8 | 90.7 | 96.2 | 99.9 | 100 | – | concentration at which none of the isolates shows schizont maturation ([1]; 58 isolates): above 300 nmol/l; inhibition at 0.003 µM [1, 7]: 7.14%; inhibition at 0.01 µM [1, 7]: 20.4%; inhibition at 0.03 µM [1, 7]: 47.2%; inhibition at 0.1 µM [1, 7]: 90.7%; inhibition at 0.3 µM [1, 7]: 99.8%; inhibition at 1 µM [1, 7]: 100%; inhibition at 3 µM [1, 7]: 100%; EC50 ([1]; Plasmodium falciparum, read-out: EC50: mean value (50% inhibition versus controls not given active substance), 58 isolates (Example 6.1)): 24.4 nM; isolates completely inhibited ([1]; at 300 nmol/l, 34 isolates): 96%; isolates completely inhibited ([1]; at 300 nmol/l, 58 isolates): 97%; EC50 ([1]; read-out: EC50: mean value (50% inhibition versus controls not given active substance), 58 isolates (Example 6.1)): 24.4 nM; plasma half-life ([2]; in patients): 96 to 140 h; solubility (in words) [3]: not very good; absorption with foods having a high fat content, times higher than in the absence of such fatty foods [4]: up to 16 times |

Second part, led by results:

| EC50 [1, 6] [nM] | Structure (SMILES) | concentration at which none of the isolates shows schizont maturation ([1]; 34 isolates) | power ratio (PR) between benflumetol and the compound ([1]; 34 isolates) | efficacy compared with benflumetol (in words) [1] | inhibition at 0.003 µM [1, 5] [%] | inhibition at 0.01 µM [1, 5] [%] | inhibition at 0.03 µM [1, 5] [%] | inhibition at 0.1 µM [1, 5] [%] | inhibition at 0.3 µM [1, 5] [%] | inhibition at 1 µM [1, 5] [%] | inhibition at 3 µM [1, 5] [%] | isolates completely inhibited ([1]; at 100 nml/l, 34 isolates) [%] | further results |
| --- | --- | --- | --- | --- | --- | --- | --- | --- | --- | --- | --- | --- | --- |
| 10.5 | CNCC(O)c1cc(Cl)cc2c1-c1ccc(Cl)cc1C2=Cc1ccc(Cl)cc1 (stereo not shown) [5a, 2-Methylamino-1-[2,7-dichloro-9-(4-chlorobenzylidene)-9H-fluoren-4yl]ethanol] | 1000 nmol/L | 2.8898 | about four times as effective as benflumetol | 13.1 | 51.9 | 83.1 | 95.8 | 97.1 | 100 | 100 | 96 | EC99 of the compound as fraction of that for benflumetol ([1]; 34 isolates): about one fifth |
| 14.4 | CCCCCNCC(O)c1cc(Cl)cc2c1-c1ccc(Cl)cc1C2=Cc1ccc(Cl)cc1 (stereo not shown) [5c, 2-n-Pentylamino-1-[2,7-dichloro-9-(4-chlorobenzylidene)-9H-fluoren-4yl]ethanol] | 3000 nmol/L | 2.0724 | about five times as effective as benflumetol | 6.83 | 36.4 | 81.2 | 94.8 | 97 | 99.6 | 100 | 95 | EC99 of the compound, times lower than that for benflumetol ([1]; 34 isolates): about 4 times |
